The test system of this assay is Mycobacterium tuberculosis variant bovis. The assay can be described thus: Antibacterial activity against Mycobacterium bovis BCG assessed as inhibition of bacterial growth incubated for 4 to 7 days. The format is functional. Conditions: time 4-7 day.

Structures are written as SMILES. Values after ≈ are worked out from the molar mass of the structure shown.

By MIC99 is commonly meant an inhibitory concentration at the 99% level, which refers to growth in some studies and to a panel of isolates in others. As to `Nc1nc(N)c(N=O)c(OCC2CCCCC2)n1`, the MIC99 came out at 1.6 µM (≈ 0.402 µg/mL).

These data come from ChEMBL document CHEMBL5137025, “Tuberculosis Drug Discovery: Challenges and New Horizons” (J Med Chem, 2022).
